Values quoted from earlier work as cited in US9492446B2, “Manufacturing method of solid dispersion containing itraconazole” (CTC BIO, Inc., priority 2004, dated 2016).

Legend:
[1] = AIDS patients, higher pH in stomach; oral

water-solubility: less than 1 ug/ml
absorption of itraconazole relative to that of normal people [1]: no more than 50%
SMILES: CCC(C)n1ncn(-c2ccc(N3CCN(c4ccc(OCC5COC(Cn6cncn6)(c6ccc(Cl)cc6Cl)O5)cc4)CC3)cc2)c1=O (centres unmarked) [Itraconazole]
